Test results taken from patent US11648258B2, “Method and compounds for inhibiting the MCM complex and their application in cancer treatment” (priority 2012, dated 2023).

How the values were obtained:
[1] = system: cancer cell lines (HepG2, Hep3B, HeLa, HK1, C666-1); experiment: cells; format: cell-based, human; details: for IC50: Homo sapiens, 48 hrs treatment, WST-1, average over cancer cell lines
Method: (§1) For testing the anti-proliferation activity of the compounds in human cell lines and calculation of IC50, cancer cells including HepG2, HeLa and Hep3B (4×10^5 cells/well) and normal L-02 cells (5×10^5 cells/well) were respectively seeded in 96-well plates in 100 μl of culture medium and incubated for about 12 hrs at 37° C. The cells were treated with two-fold serial dilutions of the drugs for 48 hrs. Medium was removed and 100 μl of culture medium containing 1 μM WST-1 (water soluble tetrazolium-1) were added to each well. The cells were incubated for 2 hrs, and absorbance at 405 nm (reference at 630 nm) was then measured. To construct the standard curve of the relationship between cell number and absorbance at OD405, serial dilutions of cells with known cell numbers were seeded and incubated for six hrs before being measured by the WST-1 assay. The cell viability was expressed as the ratio of the number of live cells treated with a candidate compound versus that of the DMSO-treated cells.
(§2) To further test 17beta-Deacetyltanghinin and to determine the IC50 values, besides L-02 and HepG2, Hep3B (another liver cancer cell line which is p53-negative), HeLa (cervical cancer cell line), HK1 and C666-1 (nasopharyngeal carcinoma) cells and a hTert-immortalized normal nasopharyngeal cell line (NP460) were treated by 17beta-Deacetyltanghinin for 48 hrs, and the relative cell vabilities were determined by WST-1 assay (FIG. 2B, C).

[2] = system: L-02 cells (normal human liver cells); experiment: in vitro; details: L-02, 48 hrs
Method: as §1
A pair of human cell lines, L-02 (normal liver cells) and HepG2 (a liver cancer cell line) was treated with 17beta-Deacetyltanghinin for 48 hrs. […] In FIG. 2B-H, quantification of viable cell numbers was carried out using WST-1 (Water-soluble tetrazolium-1) assay.
as §2

[3] = system: normal cells (L-02, NP460); experiment: WST-1 anti-proliferation assay, normal cells (IC50); format: cell-based; details: Homo sapiens, 48 hrs treatment
Method: as §1, with “cells. […]” for “cells.”

[4] = molecular target: T1, hMcm2-hMcm6 interaction (MCM complex) (Homo sapiens, UniProt P49736+Q14566); experiment: Co-immunoprecipitation of MCM subunits in HeLa cell extracts; format: cell-based; details: asynchronous HeLa cells, whole cell extracts
T1 construct: endogenous in cells; host or cells: HeLa
Method: To test if 17beta-Deacetyltanghinin targets hMcm2 and hMcm6 proteins in human cells, possible co-immunoprecipitation (co-IP) of the two proteins was tested in human cell extracts from cells treated with 17beta-Deacetyltanghinin. In FIG. 3, asynchronous HeLa cells were treated with DMSO or 17beta-Deacetyltanghinin (DAT) (FIG. 3A), or with DMSO, 17beta-Neriifolin (NRF) or 17beta-Deacetyltanghinin diol (Diol) (FIG. 3B), and whole cell extracts were prepared and further incubated with the compound before being used for co-IP in the presence of the compound. The immunoprecipitates were then immunoblotted with anti-hMcm 6, anti-hMcm2, anti-hMcm4 and anti-hMcm7 antibodies.

[5] = In vivo toxicity assessment in nude mice; details: 5.0 mg/kg intraperitoneal for 20 days
Method: A further set of animal experiments was then conducted with a longer period of time, in which fifteen drug injections at 5.0 mg/kg were performed one week after tumor inoculation when the tumor size reached 0.05-0.1 cm^3. In FIG. 10B, drug injections and tumor size measurements were performed on the days represented by the data points, and the photographs in FIG. 10C were taken on day 20.
In FIG. 11, S refers to solvent-treated mice without tumor inoculation; S+T represents solvent-treated mice with tumor inoculation; DAT refers to 17beta-Deacetyltanghinin-treated mice without tumor inoculation; DAT+T represents 17beta-Deacetyltanghinin-treated mice with tumor inoculation; and P+T refers to Paelitaxel-treated mice with tumor inoculation. Three out of the five mice with intermediate tumor size in each group were selected for physiological parameters examination. The tumors (T) and internal organs including liver (L), heart (H) and kidney (K) were dissected from each mouse.
Furthermore, blood from each mouse was also collected for the tests of the ALT (alanine aminotransferase) and LDH (Lactate dehydrogenase) activities. […] The results of both tests were represented as the values of differently treated mice relative to the untreated ones.

HeLa cells = experiment: BrdU incorporation assay (DNA replication) in HeLa cells; format: cell-based, human
Method: Hela cells grown on cover slips coated with poly-D-lysine were incubated with 50 μM BrdU (Sigma) for 1 hr at 37° C. after 24 hrs of 17beta-Deacetyltanghinin treatment. Cells were then fixed in with 4% of PFA in PBS at room temperature for 20 min, permeabilized with 0.1% Triton X-100 and 1% BSA in PBS for 20 min, and then incubated sequentially with anti-BrdU (Sigma Chemical Company; 1:500) and anti-mouse IgG-FITC conjugates (Sigma Chemical Company; 1:500), each for 1 hr at 37° C., with three washes in PBS after each antibody incubation. BrdU signal was observed under the fluorescence microscope (Nikon TE2000E).
As 17beta-Deacetyltanghinin disrupts the interactions between hMcm2 and hMcm6 and inhibits the association of MCM proteins with chromatin, 17beta-Deacetyltanghinin should block DNA replication. To confirm this, we treated HeLa cells with 17beta-Deacetyltanghinin for 24 hrs and then labeled them with BrdU for 1 hr. Incorporated BrdU in the cellular DNA was detected by an anti-BrdU antibody followed by FITC-anti-mouse secondary antibodies which was visualized under the fluorescence microscope (FIG. 6A). DAPI was used to stain the nuclei (FIG. 6A), and the percentage of BrdU positive cells was quantified (FIG. 6B). […]

T1 sequence (P49736 2-904 limits assumed): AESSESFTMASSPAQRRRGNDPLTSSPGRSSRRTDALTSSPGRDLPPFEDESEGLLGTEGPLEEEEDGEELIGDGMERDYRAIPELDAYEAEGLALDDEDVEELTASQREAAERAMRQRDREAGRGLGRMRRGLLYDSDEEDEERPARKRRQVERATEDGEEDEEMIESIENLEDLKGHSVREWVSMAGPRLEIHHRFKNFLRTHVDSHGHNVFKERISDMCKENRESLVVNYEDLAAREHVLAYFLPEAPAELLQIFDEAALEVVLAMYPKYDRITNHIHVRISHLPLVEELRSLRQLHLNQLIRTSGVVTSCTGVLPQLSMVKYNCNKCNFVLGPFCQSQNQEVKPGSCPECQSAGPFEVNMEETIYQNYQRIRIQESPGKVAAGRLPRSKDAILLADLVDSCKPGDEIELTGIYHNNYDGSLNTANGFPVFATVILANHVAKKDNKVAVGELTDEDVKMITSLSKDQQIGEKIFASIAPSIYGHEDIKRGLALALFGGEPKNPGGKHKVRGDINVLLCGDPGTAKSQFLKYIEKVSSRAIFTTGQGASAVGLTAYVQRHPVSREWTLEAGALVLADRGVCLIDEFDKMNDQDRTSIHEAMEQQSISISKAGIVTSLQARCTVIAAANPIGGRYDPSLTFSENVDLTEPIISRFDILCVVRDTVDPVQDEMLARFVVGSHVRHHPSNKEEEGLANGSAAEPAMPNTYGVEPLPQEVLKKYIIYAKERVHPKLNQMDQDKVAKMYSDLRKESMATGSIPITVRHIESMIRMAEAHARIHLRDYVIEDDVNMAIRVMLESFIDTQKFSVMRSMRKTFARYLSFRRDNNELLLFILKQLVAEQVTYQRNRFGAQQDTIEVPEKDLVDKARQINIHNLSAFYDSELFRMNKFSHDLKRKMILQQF
T1 sequence (Q14566 whole entry): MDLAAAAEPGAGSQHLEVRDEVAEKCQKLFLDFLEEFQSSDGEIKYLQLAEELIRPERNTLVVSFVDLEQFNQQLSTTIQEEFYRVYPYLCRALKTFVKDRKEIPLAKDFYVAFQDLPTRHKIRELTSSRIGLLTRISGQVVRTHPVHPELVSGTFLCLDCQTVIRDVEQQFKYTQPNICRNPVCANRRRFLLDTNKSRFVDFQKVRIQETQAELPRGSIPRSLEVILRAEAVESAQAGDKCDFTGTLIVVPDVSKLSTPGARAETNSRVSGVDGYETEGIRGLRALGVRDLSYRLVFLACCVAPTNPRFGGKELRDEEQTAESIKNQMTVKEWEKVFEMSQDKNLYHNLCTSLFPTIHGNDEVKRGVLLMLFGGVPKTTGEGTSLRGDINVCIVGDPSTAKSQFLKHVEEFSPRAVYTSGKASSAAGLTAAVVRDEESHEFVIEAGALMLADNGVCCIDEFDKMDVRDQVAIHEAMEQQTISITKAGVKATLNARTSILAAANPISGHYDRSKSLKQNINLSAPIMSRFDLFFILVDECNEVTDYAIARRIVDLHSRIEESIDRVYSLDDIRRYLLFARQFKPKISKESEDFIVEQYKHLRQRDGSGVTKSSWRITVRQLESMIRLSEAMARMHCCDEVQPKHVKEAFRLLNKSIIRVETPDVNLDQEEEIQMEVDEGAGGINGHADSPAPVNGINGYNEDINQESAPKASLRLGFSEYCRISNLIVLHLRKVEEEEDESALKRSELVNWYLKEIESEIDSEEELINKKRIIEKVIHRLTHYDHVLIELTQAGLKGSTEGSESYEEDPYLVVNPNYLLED

In the case of `COC1C(O)[C@H](O[C@H]2CC[C@]3(C)C4CC[C@]5(C)[C@@H](C6=CC(=O)OC6)CC[C@]5(O)[C@@]45O[C@H]5C[C@@H]3C2)OC(C)[C@@H]1O` (stereo partly drawn) [17beta-Deacetyltanghinin, 3β-O-(3-O-methyl-6-deoxy-α-L-glucopyranosyl)-7β,8β-epoxy-14β-hydroxy-card-20(22)-enolide], the IC50 [1] is reported as roughly 0.1 µg/mL, the IC50 ([1]; printed in brackets) is reported as roughly 200 nM and the “anti-proliferative (anticancer) activity, in words” value ([1]; WST-1 assay, 48 hrs) is reported as “significantly inhibited”. For the same compound, the “activity towards normal cells, direct microscopy of cell density and morphology” value [2] was “much lower activity”, the IC50 [3] was greater than 4 µg/mL and the “disruption of hMcm2-hMcm6 interaction (co-IP)” value [4] was “disrupted the interaction between hMcm2 and hMcm6”. For the same compound, the “appearance of organs (liver, heart, kidney)” value [5] was “All organs looked normal”, the body weight loss [5] was “no obvious weight loss” and the “organ weights relative to body weights” value [5] was “not significantly changed”. For the same compound, the “blood ALT (printed ATL) or LDH level” value ([5]; relative to untreated mice) was “did not induce significant increase”, the BrdU positive cells (HeLa cells; HeLa cells arrested with Mimosine, 12 hrs pre-treatment, released in presence of compound, controls ~100%) was roughly 40% and the “BrdU signal (DNA replication)” value (HeLa cells; asynchronous HeLa cells, 24 hrs, above 0.2 ∝g/ml) was “almost no BrdU signal”.
